Measured values published in patent US7775469B2, “Purposeful movement of human migratory cells away from an agent source” (The General Hospital Corporation, priority 1999, dated 2010).

How the values were obtained:
[1] = system: T-cell subpopulations moving toward or away from SDF-1α; assay: Inhibitor pretreatment of T-cells in SDF-1α transwell transmigration assay; format: cell-based, human; details: cells pretreated with inhibitor; for effect on chemotaxis to SDF-1α: peak chemotaxis at 100 ng/ml SDF-1α; for effect on fugetaxis from SDF-1α: peak fugetaxis at 1 or 10 μg/ml SDF-1α
Experimental: Three chemotaxis assays were used in this study. First, quantitative chemotaxis transmigration assays were performed using a transwell system (Corning Inc., NY) (6.5 mm diameter, 5 μm pore size, polycarbonate membrane) as previously described^13. Purified T-cell and thymocyte subpopulations (5×10^4 cells) were added to the upper chamber of each well in a total volume of 150 μl of IMDM alone. […] Cells were pretreated with pertussis toxin (PTX) 100 ng/ml for 1 hour, genistein (1 μg/ml for 20 minutes), herbimycin (1 μM for 20 minutes) or wortmannin (1 μM for 20 minutes) (Sigma Chemical Company, St Louis, Mo.) in a tissue culture incubator at 37° C. and 5% CO2 prior to their addition to the upper chambers of the transwells in selected experiments.
Transwells prepared in this way were incubated for 3 hours at 37° C., 5% CO2 incubator. Cells were harvested from the lower chamber after 3 hours and cell counts, immunophenotype and CXCR-4 chemokine receptor expression determined.
(§1) Cells were pretreated with anti-CXCR-4 (Pharmingen, San Diego, Calif.) at 20 μg/ml for 30 minutes at room temperature, pertussis toxin (PTX) (100 ng/ml for 1 hour at 37° C.), genistein (1 μg/ml for 20 minutes at 37° C.), herbimycin ([…] for 20 minutes 37° C.), wortmannin (1 μM for 20 minutes at 37° C.), 8-Br-cAMP (100 μM for 15 minutes at room temperature) or 8-Br-cGMP (100 μM for 15 minutes at room temperature) (Sigma Chemical Company, St Louis, Mo.) prior to their addition to the upper chambers of the transwells in selected experiments. Transwells prepared in this way were incubated for 3 hours at 37° C./5% C02 incubator. Cells were harvested from the lower chamber after 3 hours and cell counts performed using a hemocytometer.

Jurkat T-cells = assay: Transwell transmigration of Jurkat T-cells to HepG2CM fractions, with inhibitors; format: cell-based, human; details: Jurkat cells pretreated, 100 μM for 15 minutes
Experimental: The HepG2 cell line (derived from a human hepatocarcinoma-ATCC no:HB-8065, ATCC, Manassas, Va.) was grown to confluency in MEM+10% heat inactivated fetal calf serum+penicillin/streptomycin+L-glutamine. Confluent HepG2 cells were then transferred into serum free medium for 48 hours and the serum free conditioned medium (HepG2CM) was harvested from these cultures. HepG2CM was filtered through a 0.4 μm filter prior to use in transmigration assays or in the Fugetaxin separation system detailed below.
200 ml of HepG2CM were loaded onto a 5-ml HiTrap heparin column (Pharmacia) equilibrated with 10 mM Na phosphate, pH 7. The column was eluted with step increasing concentration of NaCl. […] A cation exchange column, HiTrap Sp Sepharose (Pharmacia), was used as a second step of purification. The active fraction from the Heparin column was dialysized against 50 mM MES, pH6.4 and loaded onto a 1-ml HiTrap Sp column equilibrated with 50 mM MES, pH6.4. The column was then eluted with a linear gradient of NaCl concentration. • 3. […] The active fraction eluted from the HiTrap Sp column in the previous step was then dialysized with 20 mM Tris, pH8.0 and further fractionated using a MonoQ HR5/5 column (Pharmacia). The column was then eluted with a linear gradient of NaCl concentration.
We examined the biology of the fugetactic activity of Fraction 18 with in vitro and in vivo transmigration assay systems. […]

CD8+CD45RA+ T-cells = assay: Transwell transmigration assay with recombinant HIV-1IIIB gp120 and inhibitors; format: cell-based, human; details: cells pretreated with inhibitor
Experimental: Purified T-cell and thymocyte subpopulations (5×10^4 cells) were added to the upper chamber of each well in a total volume of 150 μl of IMDM alone.
as §1

[2] = system: human T-cell subpopulations; assay: Transmigration of human T-cells to KSHV-infected cell supernatants and chemokines; format: cell-based
Source text: We examined the chemotactic and fugetactic responses of human T-cell subpopulations and KSHV specific CTL clones to the KSHV proteins vMIP-I and vMIP-II and serum free supernatants from two cell-lines well known in the art that are chronically infected by KSHV and derived from human tumors, lines BCBL-1 and VG-1. BCBL-1 is a B cell line derived from a body cavity-based B lymphoma that is latently infected with HHV-8/KSHV; no EBV DNA is present in this line (Renne, R., W. et al., Nat. Med., 1996, 2:342-346).
FIG. 7: Transmigration of human T-cells to supernatants derived from cell lines which are chronically infected with KSHV (FIG. 7A: BCBL-1, and FIG. 7B:VG-1).
Fugetactic (black bars) and chemotactic (striped bars) migratory responses are shown.

For CO[C@H]1[C@@H](OC)C[C@H](C)[C@@H](OC)C2=CC(=O)C=C(NC(=O)/C(C)=C/C=C\[C@H](OC)[C@@H](OC(N)=O)/C(C)=C/[C@@H]1C)C2=O [herbimycin], the “effect on chemotaxis to SDF-1α” value [1] was “inhibited chemotaxis” and the “effect on fugetaxis from SDF-1α” value [1] was “minimal effect on fugetaxis”.

For Nc1nc2c(nc(Br)n2[C@@H]2O[C@@H]3COP(=O)(O)O[C@H]3[C@H]2O)c(=O)[nH]1 [8-Br-cGMP], the “inhibition of fugetaxis induced by Fraction 18” value (Jurkat T-cells) was “did not significantly inhibit fugetaxis”.

For Nc1ncnc2c1nc(Br)n2[C@@H]1O[C@@H]2COP(=O)(O)O[C@H]2[C@H]1O [8-Br-cAMP], the “inhibition of fugetaxis induced by Fraction 18” value (Jurkat T-cells) was 95%, the “effect on chemotaxis to SDF-1α” value [1] was “not chemotaxis” and the “effect on fugetaxis from SDF-1α” value [1] was “inhibited fugetaxis”. For the same molecule, the “effect on movement away from HIV-1IIIB gp120” value (CD8+CD45RA+ T-cells) was “differentially sensitive to inhibition”.

O=c1c(-c2ccc(O)cc2)coc2cc(O)cc(O)c12 [genistein] was tested, and the “effect on chemotaxis to SDF-1α” value [1] was “inhibited chemotaxis” and the “effect on fugetaxis from SDF-1α” value [1] was “minimal effect on fugetaxis”.

B1: MIP-1α: human chemokine (protein, UniProt P10147 24-92, looked up)
C-C motif chemokine 3: SLAADTPTACCFSYTSRQIPQNFIADYFETSSQCSKPGVIFLTKRSRQVCADPSEEWVQKYVSDLELSA
For B1, the “chemotactic response of T-cell subsets” value ([2]; 10 ng/ml) was “clear chemotactic response”.

B2: vMIP-II: KSHV-encoded human chemokine homologue (protein, UniProt Q98157 21-94, looked up)
Viral macrophage inflammatory …: GDTLGASWHRPDKCCLGYQKRPLPQVLLSSWYPTSQLCSKPGVIFLTKRGRQVCADKSKDWVKKLMQQLPVTAR
In the case of B2, the “fugetactic response of T-cells” value ([2]; 100 ng/ml) is reported as “not”.
